# Test results published in patent US20120016011A1, “RNA Interference Mediated Inhibition of Connective Tissue Growth Factor (CTGF) Gene Expression Using Short Interfering Nucleic Acid (siNA)” (Merck Sharp & Dohme Corp., priority 2009, published 2012).
# [invAb] = inverted abasic unit; m = 2'-O-methyl; r = 2'-OH (RNA); f = 2'-fluoro
# Assays:
# CTGF mRNA [1] = experiment: CTGF mRNA knockdown (Taqman RT-PCR) after siNA transfection of mouse NIH 3T3 cells; assay type: cell-based; conditions: mouse NIH3T3 cells, 10 nM siNA, 24 hrs, average of 3 experiments, vs non-targeting control
# Protocol: NIH 3T3 (mouse; ATCC cat# CRL-1658): Cells were cultured at 37° C. in the presence of 5% CO2 and grown in Dulbecco's modified Eagle's medium (DMEM) with 4 mM L-glutamine adjusted to contain 1.5 g/L sodium bicarbonate and 4.5 g/L glucose and supplemented with fetal bovine serum at a final concentration of 10%, 100 μg/mL of streptomycin, and 100 U/mL penicillin.
# (§1) Cells were plated in all wells of a tissue-culture treated, 96-well plate at a final count of 5000 cells/well in […], of the appropriate culture media. The cells were cultured for 24 hours after plating at 37° C. in the presence of 5% CO2.
# (§2) After 24 hours, complexes containing siNA and RNAiMax were created as follows: A solution of RNAiMax diluted 33-fold in OPTI-MEM was prepared. In parallel, solutions of the siNAs for testing were prepared to a final concentration of 120 nM in OPTI-MEM. After incubation of RNAiMax/OPTI-MEM solution at room temperature for 5 min, an equal volume of the siNA solution and the RNAiMax solution were added together for each of the siNAs.
# (§3) This solution was incubated at room temperature for 20 minutes. After incubation, 20 uL of the solution was added to each of the relevant wells. The final concentration of siNA in each well was 10 nM and the final volume of RNAiMax in each well was 0.3 ul.
# (§4) The time of incubation with the RNAiMax-siNA complexes was 24 hours and there was no change in media between transfection and harvesting, unless otherwise indicated.
# (§5) RNA was extracted from a 96-well plate using the TaqMan® Gene Expression Cells-to-CT™ Kit (Cat# 4399002) with a modified protocol. Briefly, a 60 uL (1 plate) or 110 uL (2 plates) of the Lysis Solution with DNase I was dispensed into each well of the Lysis Buffer Plate (twin.tec full skirt plate). The lysis buffer and stop plates were stored at 4° C. until the cells were washed.
# (§6) The plate was spun at 1100 rpm for 5 minutes. The culture medium was aspirated and discarded from the wells of the culture plate. The lysis was performed automatically using a BioMek FX instrument and method. After the Biomek method was completed, the lysis plate was incubated for 2 min. at room temperature. The lysis plate can be stored for 2 hours at 4° C., or at −20° C. or −80° C. for two months.
# (§7) Each well of the reverse transcription plate required 10 uL of 2× reverse transcriptase Buffer, 1 uL of 20× reverse transcription enzyme and 2 uL of nuclease-free water. The reverse transcription master mix was prepared by mixing 2× reverse transcription buffer, 20× reverse transcription enzyme mix, and nuclease-free water. 13 uL of the reverse transcription master mix was dispensed into each well of the reverse transcription plate (semi-skirted). A separate reverse transcription plate was prepared for each cell plate. The plate was loaded onto a Biomek NX or Biomek FX Dual -96 and the Biomek method was run. The program is programmed to automatically added 7 uL of lysate from the cell lysis procedure described above into each well of the reverse transcription plate. The plate is sealed and spun on a centrifuge (1000 rpm for 30 seconds) to settle the contents to the bottom of the reverse transcription plate. The plate is placed in a thermocycler at 37° C. for 60 min, 95° C. for 5 min, and 4° C. until the plate is removed from the thermocycler. Upon removal, if not used immediately, the plate was frozen at −20° C.
# (§8) A series of probes and primers were used to detect the various mRNA transcripts of the genes of β-Actin (human cell line only), and of CTGF and GAPDH in mouse and human cell lines. All Taqman probes and primers for the experiments here-in described were supplied as pre-validated sets by Applied Biosystems, Inc. (see Table 3).
# The assays were performed on an ABI 7900 instrument, according to the manufacturer's instructions. A TaqMan Gene Expression Master Mix (provided in the Cells-to-CT™, Applied Biosystems, Cat # 4399002) was used. […]
# CTGF mRNA [2] = experiment: CTGF mRNA knockdown (Taqman RT-PCR) after siNA transfection of human NHLF cells; assay type: cell-based; conditions: 10 nM siNA, 24 hrs, average of 3 experiments, vs non-targeting control
# Protocol: NHLF (Normal human lung fibroblasts; Lonza cat# CC-2512): Cells were cultured at 37° C. in the presence of 5% CO2 and grown in Fibroblast Basal Medium (Lonza cat# CC-3132) supplemented with 2% FBS and growth factors (provided with the kit) and 100 μg/mL of streptomycin and 100 U/mL penicillin.
# as §1, §2, §3, §4, §5, §6, §7, §8
# The assays were performed on an ABI 7900 instrument, according to the manufacturer's instructions. A TaqMan Gene Expression Master Mix (provided in the Cells-to-CT™, Applied Biosystems, Cat # 4399002) was used. The PCR reactions were carried out at 50° C. for 2 min, 95° C. for 20 min followed by 40 cycles at 95° C. for 15 secs and 60° C. for 1 min. […]
Substance,% KD Mouse (CTGF mRNA [1]),% KD Human (CTGF mRNA [2])
"48053-DC: siNA duplex; sense SEQ ID NO: 71 B cAGAGAGuGAGAGAcAuuA TTB; antisense SEQ ID NO: 72 UAAuGucucucAcucucuGUU (sense CAGAGAGUGAGAGACAUUATT; antisense UAAUGUCUCUCACUCUCUGUU; sense: DNA at AGT, 2'-fluoro at CU, [invAb] at 5' end, 3' end, backbone not given here; antisense: sugars from the 5' end rrrfmffffffmffffffmmm, backbone not given here)",26 ± 9%,45 ± 7%
"48044-DC: siNA duplex; sense SEQ ID NO: 53 B GuGuGcAccGccAAAGAuG TTB; antisense SEQ ID NO: 54 CAUcuuuGGcGGuGcAcAcUU (sense GUGUGCACCGCCAAAGAUGTT; antisense CAUCUUUGGCGGUGCACACUU; sense: DNA at AGT, 2'-fluoro at CU, [invAb] at 5' end, 3' end, backbone not given here; antisense: sugars from the 5' end rrrffffmmfmmfmfmfmfmm, backbone not given here)",−18 ± 5%,−16 ± 8%
"48074-DC: siNA duplex; sense SEQ ID NO: 113 B GGAGGAAcuAucccAccAA TTB; antisense SEQ ID NO: 114 UUGGuGGGAuAGuuccuccUU (sense GGAGGAACUAUCCCACCAATT; antisense UUGGUGGGAUAGUUCCUCCUU; sense: DNA at AGT, 2'-fluoro at CU, [invAb] at 5' end, 3' end, backbone not given here; antisense: sugars from the 5' end rrrmfmmmmfmmfffffffmm, backbone not given here)",21 ± 2%,3 ± 9%
"48043-DC: siNA duplex; sense SEQ ID NO: 51 B GAcAuAccGAGcuAAAuuc TTB; antisense SEQ ID NO: 52 GAAuuuAGcucGGuAuGucUU (sense GACAUACCGAGCUAAAUUCTT; antisense GAAUUUAGCUCGGUAUGUCUU; sense: DNA at AGT, 2'-fluoro at CU, [invAb] at 5' end, 3' end, backbone not given here; antisense: sugars from the 5' end rrrfffmmfffmmfmfmffmm, backbone not given here)",48 ± 0%,57 ± 7%
"48075-DC: siNA duplex; sense SEQ ID NO: 115 B ccucAGAcAcuGGuuucGA TTB; antisense SEQ ID NO: 116 UCGAAAccAGuGucuGAGGUU (sense CCUCAGACACUGGUUUCGATT; antisense UCGAAACCAGUGUCUGAGGUU; sense: DNA at AGT, 2'-fluoro at CU, [invAb] at 5' end, 3' end, backbone not given here; antisense: sugars from the 5' end rrrmmmffmmfmfffmmmmmm, backbone not given here)",69 ± 2%,36 ± 9%
"48078-DC: siNA duplex; sense SEQ ID NO: 121 B GGuAcuAGcuGAGGuuAuu TTB; antisense SEQ ID NO: 122 AAUAAccucAGcuAGuAccUU (sense GGUACUAGCUGAGGUUAUUTT; antisense AAUAACCUCAGCUAGUACCUU; sense: DNA at AGT, 2'-fluoro at CU, [invAb] at 5' end, 3' end, backbone not given here; antisense: sugars from the 5' end rrrmmffffmmffmmfmffmm, backbone not given here)",69 ± 1%,31 ± 6%
"48076-DC: siNA duplex; sense SEQ ID NO: 117 B AcAGuAGcAcAuuAAuuuA TTB; antisense SEQ ID NO: 118 UAAAuuAAuGuGcuAcuGuUU (sense ACAGUAGCACAUUAAUUUATT; antisense UAAAUUAAUGUGCUACUGUUU; sense: DNA at AGT, 2'-fluoro at CU, [invAb] at 5' end, 3' end, backbone not given here; antisense: sugars from the 5' end rrrmffmmfmfmffmffmfmm, backbone not given here)",84 ± 1%,−3 ± 1%
48039-DC: siNA duplex; sense SEQ ID NO: 43 B ccuAucAAGuuuGAGcuuu TTB; antisense SEQ ID NO: 44 AAAGcucAAAcuuGAuAGGUU,21±7%,81 ± 3%
"48064-DC: siNA duplex; sense SEQ ID NO: 93 B AGuGGAGAuGccAGGAGAA TTB; antisense SEQ ID NO: 94 UUCuccuGGcAucuccAcuUU (sense AGUGGAGAUGCCAGGAGAATT; antisense UUCUCCUGGCAUCUCCACUUU; sense: DNA at AGT, 2'-fluoro at CU, [invAb] at 5' end, 3' end, backbone not given here; antisense: sugars from the 5' end rrrffffmmfmfffffmffmm, backbone not given here)",58 ± 3%,6 ± 6%
"48057-DC: siNA duplex; sense SEQ ID NO: 79 B cuAuuuGAAGuGuAAuuGA TTB; antisense SEQ ID NO: 80 UCAAuuAcAcuucAAAuAGUU (sense CUAUUUGAAGUGUAAUUGATT; antisense UCAAUUACACUUCAAAUAGUU; sense: DNA at AGT, 2'-fluoro at CU, [invAb] at 5' end, 3' end, backbone not given here; antisense: sugars from the 5' end rrrmffmfmffffmmmfmmmm, backbone not given here)",26 ± 5%,80 ± 5%
"48060-DC: siNA duplex; sense SEQ ID NO: 85 B ucuGucAAccucAGAcAcu TTB; antisense SEQ ID NO: 86 AGUGucuGAGGuuGAcAGAUU (sense UCUGUCAACCUCAGACACUTT; antisense AGUGUCUGAGGUUGACAGAUU; sense: DNA at AGT, 2'-fluoro at CU, [invAb] at 5' end, 3' end, backbone not given here; antisense: sugars from the 5' end rrrmfffmmmmffmmfmmmmm, backbone not given here)",74 ± 3%,64 ± 8%
"48067-DC: siNA duplex; sense SEQ ID NO: 99 B GGGucAAGcuGccuGGGAA TTB; antisense SEQ ID NO: 100 UUCccAGGcAGcuuGAcccUU (sense GGGUCAAGCUGCCUGGGAATT; antisense UUCCCAGGCAGCUUGACCCUU; sense: DNA at AGT, 2'-fluoro at CU, [invAb] at 5' end, 3' end, backbone not given here; antisense: sugars from the 5' end rrrffmmmfmmfffmmfffmm, backbone not given here)",26 ± 5%,−3 ± 31%
